Results: patent US5006511A, “Di- or tripeptide renin inhibitors containing lactam conformational restriction in achpa” (Merck & Co., Inc., priority 1988, dated 1991)
pIC50: −log10 of the molar value. Where a SMILES comes first, the peptide text is derived from it. [ ]: non-standard residue; d: D form. The star is where a group is joined. Sta = CC(C)C[C@H](N)[C@@H](O)CC(=O)O; Isovaleryl = CC(C)CC(=O)*

tested on: hog renin; test: not given; conditions: after the injection of hog renin into nephrectomized rats; Gross et al., Science 1972; cited from earlier work

Compound | blood pressure in vivo
CC(C)CC(=O)N[C@H](C(=O)N[C@H](C(=O)N[C@@H](CC(C)C)[C@@H](O)CC(=O)N[C@@H](C)C(=O)N[C@@H](CC(C)C)[C@@H](O)CC(=O)O)C(C)C)C(C)C [pepstatin] (Isovaleryl-VV[Sta]A[Sta]-OH) | reduces blood pressure in vivo

target: T1, human plasma renin (Homo sapiens, UniProt P00797); test: In vitro inhibition of human plasma renin (Boger et al., J. Med. Chem. 1985, 28, 1779); type: biochemical; conditions: human plasma renin assay
T1 construct: from tissue; host or cells: human plasma
T1 sequence (P00797 67-406): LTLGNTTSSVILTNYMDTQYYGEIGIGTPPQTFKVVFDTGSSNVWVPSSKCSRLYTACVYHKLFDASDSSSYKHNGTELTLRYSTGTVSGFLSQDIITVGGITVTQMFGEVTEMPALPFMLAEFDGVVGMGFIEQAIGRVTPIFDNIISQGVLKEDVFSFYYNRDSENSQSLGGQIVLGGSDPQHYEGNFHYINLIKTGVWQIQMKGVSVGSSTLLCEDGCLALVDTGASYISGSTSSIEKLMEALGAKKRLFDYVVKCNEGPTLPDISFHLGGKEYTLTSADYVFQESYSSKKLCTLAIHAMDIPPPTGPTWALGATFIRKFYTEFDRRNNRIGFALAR
Method: In vitro inhibition of human plasma renin was measured as described by Boger, et al., J. Med. Chem. (1985) 28, 1779.
They were analyzed for purity by HPLC (30 minute gradient, 5% CH3 CN--H2 O to 95% CH3 CN--H2 O buffered with 0.1% H3 PO4; C18 reverse phase column), and were analyzed for composition by C, H, and N combustion analysis. IC50 values were measured in vitro using the human plasma renin assay, as described by Boger et al. J. Med. Chem. (1985) 28, 1779.
They were analyzed for purity by HPLC under conditions given above, and were analyzed for composition by C, H, and N combustion analysis. IC50 values were measured as described above.

Compound | pIC50
Boc-Phe-His-(ACHP)-1-(2-Benzyloxyethyl-2-Pyrrolidinone [Example 3E] | 7.62
Boc-Phe-His-(ACHP)-1-Cyclohexyl-2-Pyrrolidinone [Example 3B] | 8.00
Boc-Phe-His-(ACHP)-1-Methyl-2-Pyrrolidinone [Example 3A] | 8.00
Boc-Phe-His-(ACHP)-1-Methyl-5(R)-Vinyl-2-Pyrrolidinone [Example 3G] | 8.60
Boc-Phe-His-(ACHP)-1-Methyl-5(S)-Vinyl-2-Pyrrolidinone [Example 3F] | 8.10
Boc-Phe-His-(ACHP)-5(R)-Ethyl-1-Methyl-2-Pyrrolidinone [Example 3K] | 8.07
Boc-Phe-His-(ACHP)-5(S)-Acetoxymethyl)-1-Methyl-2-Pyrrolidinone [Example 3J] | 6.80
Boc-Phe-His-(ACHP)-5(S)-Benzyloxymethyl-1-Methyl-2-Pyrrolidinone [Example 3C] | 5.36
Boc-Phe-His-(ACHP)-5(S)-Ethyl-1-Methyl-2-Pyrrolidinone [Example 3L] | 8.28
Boc-Phe-His-(ACHP)-5(S)-Hydroxymethyl)-1-Methyl-2-Pyrrolidinone [Example 3I] | 7.85
Boc-Phe-His-(ACHP)-5(S)-Methoxymethyl-1-Methyl-2-Pyrrolidinone [Example 3D] | 7.15
